This is an account of results in paper PMC9322052, “Synthesis and Biological Activity Screening of Newly Synthesized Trimethoxyphenyl-Based Analogues as Potential Anticancer Agents” (Molecules, 2022).

In one series the test system is p53. Kind of series: ELISA quantification of p53 level. The class given is cell-based, human. The following applies: HepG2, 1.38 μM (IC50), 48 h. How it is done:
Compound 9 was screened for its ability to activate p53 and Bax as well as downregulate the level of Bcl-2 to investigate the mechanistic apoptotic pathway that catalyzed the apoptosis process. HepG2 cells were treated with compound 9 at a concentration equal to its IC50 in μM, and the level of p53, Bax, and Bcl-2 was quantized using ELISA analysis. The results obtained for compound 9 show the increase in the level of p53 and Bax by 8.91- and 4.50-fold, respectively, compared with the negative control samples.
Apoptotic markers (p53, Bax and Bcl-2) were measured in HepG2 cells using ELISA analysis according to the manufacturer’s directions. See Section 3.3.6 in Supplementary Material.
Figure 6 (A) The quantification of p53. (B) The quantification of Bax. (C) The quantification of Bcl-2. HepG2 cells were treated with 1.38 μM of compound 9 for 48 h and apoptotic markers were determined by ELISA assay.
(§1) 3.3.1. Cytotoxic activity evaluation
To measure the cytotoxic activity of the synthesized derivatives 2a-11 in hepatocel-lular carcinoma (HepG2) cell line (ATCC Cat No. HB-8065) as well as normal human liver cell line HL-7702 (ATCC Cat. No. 77402), cell viability assay was assessed using MTT assay method. […] The color inten-sity of the formazan product, which represents the growth condition of the cells, is quan-tified by using an ELISA plate reader (EXL 800, USA) at 570 nm absorbance. […]
(In general: ELISA stands for enzyme-linked immunosorbent assay.)

A further series deals with HepG2 cells. Description: Annexin V-FITC/PI dual staining apoptosis assay. The class given is cell-based, human. As to the method:
The extent of apoptosis induced by compound 9 in HepG2 cells was quantified by the FACS analysis. Cells were harvested after 48 h and analyzed for apoptosis percentage by flow cytometry.
[…] analysis in HepG2 cells was carried out by FACS analysis according to the manufacturer’s directions. See Section 3.3.4 in Supplementary Material.
Figure 4 Compound 9 induces apoptosis in HepG2 cells. (A) HepG2 cells were treated with 1.38 μM of compound 9 for 48 h. Cell apoptosis was quantized by Annexin V-FITC/PI dual staining assay using image-based cytometry. (B) The quantification of HepG2 cell apoptosis.
as §1
To measure the cytotoxic activity of the synthesized derivatives 2a-11 in hepatocel-lular carcinoma (HepG2) cell line (ATCC Cat No. HB-8065) as well as normal human liver cell line HL-7702 (ATCC Cat. No. 77402), cell viability assay was assessed using MTT assay method. Cells at density of 1 x 104 were seeded in a 96-well plate at 37 °C for 24 h under 5% CO2. […] The color inten-sity of the formazan product, which represents the growth condition of the cells, is quan-tified by using an ELISA plate reader (EXL 800, USA) at 570 nm absorbance. […]
Compounds 9, 10 and 11 were evaluated for their tubulin inhibitory activity levels according to the manufacturer’s instructions using # abcam Human Beta-tubulin simplestep […]
Cell cycle analysis in HepG2 cells was investigated using fluorescent Annexin V-FITC/ PI detection kit (BioVision EZCellTM Cell Cycle Analysis Kit Catalog #K920) by flow cytometry assay. […] The samples were immediately analyzed using Facs Calibur flow cytometer (Becton and Dickinson, Heidelberg, Germany). […]
Apoptosis in HepG2 cells was investigated using fluorescent Annexin V-FITC/ PI de-tection kit (BioVision Annexin V-FITC Apoptosis Detection Kit, Catalog #: K101) by flow cy-tometry assay. […] The samples were immediately analyzed using FACS Calibur flow cytometer (Becton and Dickinson, Heidelberg, Germany).
3.3.5. […] The samples were immediately analyzed using cell […]

Setting [1] is: HepG2, IC50 concentration, 48 h.

The term melting point denotes the temperature of the solid-liquid transition. `COc1ccc(C2=N/C(=C\c3cc(OC)c(OC)c(OC)c3)C(=O)NN2c2ccccc2)cc1OC` [Compound 9, (Z)-3-(3,4-Dimethoxyphenyl)-2-Phenyl-5-(3,4,5-Trimethoxybenzylidene)-1,2-Dihydro-1,2,4-Triazin-6(5H)-one] returned a melting point of 248 to 250 °C. Further, the “increase in level of p53 compared with negative control” value in the series with p53 was found to be 8.91 fold. Further, in the series with HepG2 cells (HepG2), the “increase in Annexin-V-positive cells compared with untreated control” value is around 18 fold. In the series with HepG2 cells (setting [1]), the “increase in percentage of early apoptosis compared with untreated control” value was 16.63 fold and the “increase in percentage of late apoptosis compared with untreated control” value came to 60.11 fold.
